Source: US20230295115A1, “SUBSTITUTED ISOQUINOLINYLMETHYL AMIDES, ANALOGUES THEREOF, AND METHODS USING SAME” (priority 2020, published 2023)

Test system: HBV rcDNA
Assay: HepDE19 assay with bDNA quantitation of HBV rcDNA
Format: cell-based, hepatitis B virus (HBV)
Settings: HepDE19 cells, 7 day incubation, rcDNA measured by Quantigene 2.0 bDNA assay, top concentration 25 μM; read-out: DE-19bDNA EC50
Summary of the method: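 HepDE19 cells were switched to tetracycline-free medium and exposed to compound (0.5% DMSO final) for 7 days at 37° C. rcDNA was then quantified by bDNA with an HBV-specific probe set. In parallel, viability was read as ATP content (CellTiter-Glo) after 4 days on replicate plates.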

Row | Structure (SMILES) | EC50 [µM]
1 | CC(c1c[nH]c(=O)c2c(F)c(F)ccc12)N(C)C(=O)C1Nc2ccccc2C1(C)C (centres unmarked) [Compound 105, N-(1-(7,8-Difluoro-1-oxo-1,2-dihydroisoquinolin-4-yl)ethyl)-N,3,3-trimethylindoline-2-carboxamide] | ≥ 25
2 | CC(c1c[nH]c(=O)c2c(F)c(F)ccc12)N(C)C(=O)C1Nc2ccccc2C1(C)C (centres unmarked) [Compound 106, N-(1-(7,8-Difluoro-1-oxo-1,2-dihydroisoquinolin-4-yl)ethyl)-N,3,3-trimethylindoline-2-carboxamide] | ≥ 25
3 | CC(c1c[nH]c(=O)c2c(F)c(F)ccc12)N(C)C(=O)C1Nc2ccccc2C1(C)C (centres unmarked) [Compound 107, N-(1-(7,8-Difluoro-1-oxo-1,2-dihydroisoquinolin-4-yl)ethyl)-N,3,3-trimethylindoline-2-carboxamide] | 16
4 | CC(c1c[nH]c(=O)c2cc(F)c(F)cc12)N(C)C(=O)C1Nc2ccccc2C1(C)C (centres unmarked) [Compound 113, N-(1-(6,7-Difluoro-1-oxo-1,2-dihydroisoquinolin-4-yl)ethyl)-N,3,3-trimethylindoline-2-carboxamide] | ≥ 25
5 | CC(c1c[nH]c(=O)c2cc(F)c(F)cc12)N(C)C(=O)C1Nc2ccccc2C1(C)C (centres unmarked) [Compound 114, N-(1-(6,7-Difluoro-1-oxo-1,2-dihydroisoquinolin-4-yl)ethyl)-N,3,3-trimethylindoline-2-carboxamide] | 16
6 | CC(c1c[nH]c(=O)c2cc(F)c(F)cc12)N(C)C(=O)C1Nc2ccccc2C1(C)C (centres unmarked) [Compound 115, N-(1-(6,7-Difluoro-1-oxo-1,2-dihydroisoquinolin-4-yl)ethyl)-N,3,3-trimethylindoline-2-carboxamide] | 19
7 | CC(c1cn(C)c(=O)c2cc(F)c(F)cc12)N(C)C(=O)[C@@H]1Cc2ccccc2N1 (stereo partly drawn) [Compound 183, (2S)-N-(1-(6,7-difluoro-2-methyl-1-oxo-1,2-dihydroisoquinolin-4-yl)ethyl)-N-methylindoline-2-carboxamide] | 0.07
8 | CC(c1cn(C)c(=O)c2cc(F)c(F)cc12)N(C)C(=O)[C@@H]1Cc2ccccc2N1 (stereo partly drawn) [Compound 184, (2S)-N-(1-(6,7-difluoro-2-methyl-1-oxo-1,2-dihydroisoquinolin-4-yl)ethyl)-N-methylindoline-2-carboxamide] | 4.2

Same assay, conditions: Hepatitis B virus, HepDE19, 168 h, HepDE19 cells, 7 day incubation, rcDNA measured by Quantigene 2.0 bDNA assay, top concentration 25 μM; read-out: DE-19bDNA EC50

Row | Structure (SMILES) | EC50 [µM]
9 | CC(c1c[nH]c(=O)c2c(F)c(F)ccc12)N(C)C(=O)C1Nc2ccccc2C1(C)C (centres unmarked) [Compound 104, N-(1-(7,8-Difluoro-1-oxo-1,2-dihydroisoquinolin-4-yl)ethyl)-N,3,3-trimethylindoline-2-carboxamide] | ≥ 25
10 | CC(c1c[nH]c(=O)c2cc(F)c(F)cc12)N(C)C(=O)C1Nc2ccccc2C1(C)C (centres unmarked) [Compound 112, N-(1-(6,7-Difluoro-1-oxo-1,2-dihydroisoquinolin-4-yl)ethyl)-N,3,3-trimethylindoline-2-carboxamide] | 21
11 | C[C@H](c1c[nH]c(=O)c2ccccc12)N(C)C(=O)c1ccc(C(F)(F)F)c(F)c1 [Compound 145, (R)-3-Fluoro-N-methyl-N-(1-(1-oxo-1,2-dihydroisoquinolin-4-yl)ethyl)-4-(trifluoromethyl)benzamide] | 0.11
12 | C[C@H](c1c[nH]c(=O)c2ccccc12)N(C)C(=O)c1ccc(C(F)(F)F)cc1 [Compound 147, (R)-N-Methyl-N-(1-(1-oxo-1,2-dihydroisoquinolin-4-yl)ethyl)-4-(trifluoromethyl)benzamide] | 0.16
13 | C[C@H](c1c[nH]c(=O)c2ccccc12)N(C)C(=O)c1ccc(Cl)c(F)c1 [Compound 148, (R)-4-Chloro-3-fluoro-N-methyl-N-(1-(1-oxo-1,2-dihydroisoquinolin-4-yl)ethyl)benzamide] | 0.27
14 | C[C@H](c1c[nH]c(=O)c2ccccc12)N(C)C(=O)c1ccc(F)c(Cl)c1 [Compound 149, (R)-3-Chloro-4-fluoro-N-methyl-N-(1-(1-oxo-1,2-dihydroisoquinolin-4-yl)ethyl)benzamide] | 0.68
15 | C[C@H](c1c[nH]c(=O)c2ccccc12)N(C)C(=O)c1ccc(Br)c(F)c1 [Compound 150, (R)-4-Bromo-3-fluoro-N-methyl-N-(1-(1-oxo-1,2-dihydroisoquinolin-4-yl)ethyl)benzamide] | 0.51
16 | C[C@H](c1c[nH]c(=O)c2ccccc12)N(C)C(=O)Cc1ccc(Cl)cc1 [Compound 151, (R)-2-(4-Chlorophenyl)-N-methyl-N-(1-(1-oxo-1,2-dihydroisoquinolin-4-yl)ethyl)acetamide] | 3.54
17 | C[C@H](c1c[nH]c(=O)c2ccccc12)N(C)C(=O)c1cc2cc(F)ccn2c1 [Compound 153, (R)-7-Fluoro-N-methyl-N-(1-(1-oxo-1,2-dihydroisoquinolin-4-yl)ethyl)indolizine-2-carboxamide] | 0.35
18 | C[C@H](c1c[nH]c(=O)c2ccccc12)N(C)C(=O)c1cc2c(Cl)cccn2c1 [Compound 154, (R)-8-Chloro-N-methyl-N-(1-(1-oxo-1,2-dihydroisoquinolin-4-yl)ethyl)indolizine-2-carboxamide] | 0.14
19 | C[C@H](c1c[nH]c(=O)c2ccccc12)N(C)C(=O)c1cc2ccccc2[nH]1 [Compound 155, (R)-N-Methyl-N-(1-(1-oxo-1,2-dihydroisoquinolin-4-yl)ethyl)-1H-indole-2-carboxamide] | 0.17
20 | C[C@H](c1c[nH]c(=O)c2ccccc12)N(C)C(=O)c1cc2c(F)cccc2[nH]1 [Compound 156, (R)-4-Fluoro-N-methyl-N-(1-(1-oxo-1,2-dihydroisoquinolin-4-yl)ethyl)-1H-indole-2-carboxamide] | 0.12
21 | C[C@H](c1c[nH]c(=O)c2ccccc12)N(C)C(=O)c1cc2c(F)cc(F)cc2[nH]1 [Compound 158, (R)-4,6-Difluoro-N-methyl-N-(1-(1-oxo-1,2-dihydroisoquinolin-4-yl)ethyl)-1H-indole-2-carboxamide] | 0.13
22 | C[C@H](c1c[nH]c(=O)c2ccccc12)N(C)C(=O)c1cc2cc(F)c(F)cc2[nH]1 [Compound 159, (R)-5,6-Difluoro-N-methyl-N-(1-(1-oxo-1,2-dihydroisoquinolin-4-yl)ethyl)-1H-indole-2-carboxamide] | 0.1
23 | C[C@H](c1c[nH]c(=O)c2ccccc12)N(C)C(=O)[C@@H]1Cc2ccccc2N1 [Compound 160, (S)-N-Methyl-N-((R)-1-(1-oxo-1,2-dihydroisoquinolin-4-yl)ethyl)indoline-2-carboxamide] | 0.39

Same assay, conditions: Hepatitis B virus, HepDE19, 168 h, read-out: DE-19bDNA EC50 (μM), HepDE19 cells, 7 day incubation, rcDNA measured by Quantigene 2.0 bDNA assay, top concentration 25 μM

Row | Structure (SMILES) | EC50 [µM]
24 | C[C@H](c1c[nH]c(=O)c2ccccc12)N(C)C(=O)c1ccc(Br)cc1 [Compound 146, (R)-4-Bromo-N-methyl-N-(1-(1-oxo-1,2-dihydroisoquinolin-4-yl)ethyl)benzamide] | 0.15
25 | C[C@H](c1c[nH]c(=O)c2ccccc12)N(C)C(=O)c1cc2ccccn2c1 [Compound 152, (R)-N-Methyl-N-(1-(1-oxo-1,2-dihydroisoquinolin-4-yl)ethyl)indolizine-2-carboxamide] | 0.47
26 | C[C@H](c1c[nH]c(=O)c2ccccc12)N(C)C(=O)c1cc2cc(F)ccc2[nH]1 [Compound 157, (R)-5-Fluoro-N-methyl-N-(1-(1-oxo-1,2-dihydroisoquinolin-4-yl)ethyl)-1H-indole-2-carboxamide] | 0.15
27 | C[C@H](c1c[nH]c(=O)c2cc(F)c(F)cc12)N(C)C(=O)c1ccc2cccn2c1 [Compound 185, (R)-N-(1-(6,7-Difluoro-1-oxo-1,2-dihydroisoquinolin-4-yl)ethyl)-N-methylindolizine-6-carboxamide] | 0.04
28 | C[C@H](c1c[nH]c(=O)c2cc(F)c(F)cc12)N(C)C(=O)c1cc2sc(Cl)cc2[nH]1 [Compound 186, (R)-2-Chloro-N-(1-(6,7-difluoro-1-oxo-1,2-dihydroisoquinolin-4-yl)ethyl)-N-methyl-4H-thieno[3,2-b]pyrrole-5-carboxamide] | 0.03
29 | C[C@H](c1c[nH]c(=O)c2cc(F)c(F)cc12)N(C)C(=O)c1ccn2cccc2c1 [Compound 187, (R)-N-(1-(6,7-Difluoro-1-oxo-1,2-dihydroisoquinolin-4-yl)ethyl)-N-methylindolizine-7-carboxamide] | 0.18
